# Assays:
# [1] = target: NAMPT (human, recombinant, C-terminally His-tagged) (Homo sapiens, UniProt P43490); test: Time-Resolved Fluorescence Resonance Energy Transfer (TR-FRET) Binding Assay of NAMPT; settings: without substrates; 6.8 nM NAMPT, 200 nM probe, 3 hours equilibration
# Outline: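 In a displacement format, the nicotinamide-site tracer at 200 nM competed with test compound for 6.8 nM enzyme detected via 1 nM terbium anti-His antibody; incubation lasted 3 hours at room temperature in 50 mM HEPES pH 7.5, 100 mM NaCl. Normalized 520/495 nm emission ratios gave IC50 values.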
# NAMPT = NAMPT (Homo sapiens, UniProt P43490); test: TR-FRET Binding Assay of NAMPT with PRPP; settings: with 200 μM PRPP and 2.5 mM ATP; 2 nM NAMPT, 2 nM probe, 16 hours equilibration
# Sequence of NAMPT (P43490 whole entry): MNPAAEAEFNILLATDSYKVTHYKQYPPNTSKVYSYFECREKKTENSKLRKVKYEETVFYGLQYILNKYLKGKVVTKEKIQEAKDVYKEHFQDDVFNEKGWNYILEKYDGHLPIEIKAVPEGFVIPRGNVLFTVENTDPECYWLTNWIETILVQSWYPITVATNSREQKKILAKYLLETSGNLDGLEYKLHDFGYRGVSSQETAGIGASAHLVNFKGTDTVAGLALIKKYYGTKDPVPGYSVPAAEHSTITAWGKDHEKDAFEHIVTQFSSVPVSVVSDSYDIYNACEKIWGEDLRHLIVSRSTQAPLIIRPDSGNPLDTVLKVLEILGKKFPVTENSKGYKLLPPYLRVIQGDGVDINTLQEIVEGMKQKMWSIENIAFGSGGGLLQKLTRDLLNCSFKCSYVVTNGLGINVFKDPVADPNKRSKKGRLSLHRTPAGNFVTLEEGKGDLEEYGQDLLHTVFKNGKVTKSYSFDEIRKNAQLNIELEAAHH
# Outline: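 Substrate-containing variant: 200 μM PRPP plus 2.5 mM ATP are added to 2 nM NAMPT and 2 nM probe, with a 16-hour incubation ahead of TR-FRET reading.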
# PC3 cells = test: NAMPT Cell Proliferation Assay; format: cell-based; settings: Homo sapiens, PC-3, 120 h, 5 days incubation, cell viability by Cell Titer Glo
# Outline: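 IC50 values derive from sigmoidal dose-response fits of percent inhibition of PC3 viability, measured by luminescence after 5 days of compound treatment. Cells (500/well, RPMI containing 10% heat-inactivated FBS) are allowed to attach overnight, and compounds are tested at 10-fold dilutions between 10 μM and 1×10^−5 μM.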
# Sequence of NAMPT (human, recombinant, C-terminally His-tagged) (P43490 whole entry): as above
SMILES,IC50 [1] [nM],IC50 (NAMPT) [nM],IC50 (PC3 cells) [nM]
"O=C(NCc1ccn2ccnc2c1)Nc1ccc(C2CCN(C(=O)c3ccc(F)cc3F)CC2)cc1 [Example 722, 1-{4-[1-(2,4-difluorobenzoyl)piperidin-4-yl]phenyl}-3-(imidazo[1,2-a]pyridin-7-ylmethyl)urea]",39.4,1.01,3.88
"O=C(NCc1ccn2ccnc2c1)Nc1ccc(C2CCN(C(=O)c3ccc(F)c(F)c3)CC2)cc1 [Example 723, 1-{4-[1-(3,4-difluorobenzoyl)piperidin-4-yl]phenyl}-3-(imidazo[1,2-a]pyridin-7-ylmethyl)urea]",154,0.932,71.6
"O=C(NCc1ccn2ccnc2c1)Nc1ccc(C2CCN(C(=O)c3cc(F)cc(F)c3)CC2)cc1 [Example 724, 1-{4-[1-(3,5-difluorobenzoyl)piperidin-4-yl]phenyl}-3-(imidazo[1,2-a]pyridin-7-ylmethyl)urea]",161,0.992,63.2
"O=C(NCc1ccn2ccnc2c1)Nc1ccc(C2CCN(C(=O)c3cc(F)ccc3F)CC2)cc1 [Example 725, 1-{4-[1-(2,5-difluorobenzoyl)piperidin-4-yl]phenyl}-3-(imidazo[1,2-a]pyridin-7-ylmethyl)urea]",19.6,0.747,6
"O=C(NCc1ccn2ccnc2c1)Nc1ccc(OC2CCN(C(=O)c3cccc(F)c3)CC2)cc1 [Example 726, 1-(4-{[1-(3-fluorobenzoyl)piperidin-4-yl]oxy}phenyl)-3-(imidazo[1,2-a]pyridin-7-ylmethyl)urea]",251,0.534,71.9
"O=C(NCc1ccn2ccnc2c1)Nc1ccc(OC2CCN(C(=O)c3ccc(F)cc3F)CC2)cc1 [Example 727, 1-(4-{[1-(2,4-difluorobenzoyl)piperidin-4-yl]oxy}phenyl)-3-(imidazo[1,2-a]pyridin-7-ylmethyl)urea]",166,0.783,58.2
"O=C(NCc1ccn2ccnc2c1)Nc1ccc(OC2CCN(C(=O)c3cc(F)ccc3F)CC2)cc1 [Example 728, 1-(4-{[1-(2,5-difluorobenzoyl)piperidin-4-yl]oxy}phenyl)-3-(imidazo[1,2-a]pyridin-7-ylmethyl)urea]",140,0.496,21
"O=C(NCc1ccn2ccnc2c1)Nc1ccc(OC2CCN(C(=O)c3ccc(F)c(F)c3)CC2)cc1 [Example 729, 1-(4-{[1-(3,4-difluorobenzoyl)piperidin-4-yl]oxy}phenyl)-3-(imidazo[1,2-a]pyridin-7-ylmethyl)urea]",428,0.765,45.9
"O=C(NCc1ccn2ccnc2c1)Nc1ccc(OC2CCN(C(=O)c3cc(F)cc(F)c3)CC2)cc1 [Example 730, 1-(4-{[1-(3,5-difluorobenzoyl)piperidin-4-yl]oxy}phenyl)-3-(imidazo[1,2-a]pyridin-7-ylmethyl)urea]",489,0.847,29.5
"O=C(NCc1ccn2ccnc2c1)c1ccc(C2CCN(C(=O)Cc3ccccc3)C2)cc1 (stereo not drawn) [Example 731, N-(imidazo[1,2-a]pyridin-7-ylmethyl)-4-[1-(phenylacetyl)pyrrolidin-3-yl]benzamide]",223,0.391,50
"CC(C)(C(=O)N1CCC(c2ccc(C(=O)NCc3ccn4ccnc4c3)cc2)C1)c1ccccc1 (stereo not drawn) [Example 732, N-(imidazo[1,2-a]pyridin-7-ylmethyl)-4-[1-(2-methyl-2-phenylpropanoyl)pyrrolidin-3-yl]benzamide]",21.3,0.471,5.9
"O=C(NCc1ccn2ccnc2c1)c1ccc(C2CCN(C(=O)C(F)(F)c3ccccc3)C2)cc1 (stereo not drawn) [Example 733, 4-{1-[difluoro(phenyl)acetyl]pyrrolidin-3-yl}-N-(imidazo[1,2-a]pyridin-7-ylmethyl)benzamide]",119,0.712,20.2
"CC1(Cn2cc(-c3ccc(C(=O)NCc4ccn5ccnc5c4)o3)cn2)CCOCC1 [Example 734, N-(imidazo[1,2-a]pyridin-7-ylmethyl)-5-{1-[(4-methyltetrahydro-2H-pyran-4-yl)methyl]-1H-pyrazol-4-yl}furan-2-carboxamide]",14.2,0.605,0.553
"O=C(NCc1ccn2ccnc2c1)c1ccc(C2CCN(C(=O)c3ccccc3F)CC2)o1 [Example 735, 5-[1-(2-fluorobenzoyl)piperidin-4-yl]-N-(imidazo[1,2-a]pyridin-7-ylmethyl)furan-2-carboxamide]",646,0.864,688
"CC(C)C(=O)N1CCC(c2ccc(C(=O)NCc3ccn4ccnc4c3)o2)CC1 [Example 736, N-(imidazo[1,2-a]pyridin-7-ylmethyl)-5-[1-(2-methylpropanoyl)piperidin-4-yl]furan-2-carboxamide]",3090,0.73,8360
"N#Cc1ccccc1C(=O)N1CCC(c2ccc(C(=O)NCc3ccn4ccnc4c3)cc2)CC1 [Example 737, 4-[1-(2-cyanobenzoyl)piperidin-4-yl]-N-(imidazo[1,2-a]pyridin-7-ylmethyl)benzamide]",70.4,0.612,4.05
"O=C(NCc1ccn2ccnc2c1)c1ccc(-c2cnn(CC(F)(F)F)c2)o1 [Example 738, N-(imidazo[1,2-a]pyridin-7-ylmethyl)-5-[1-(2,2,2-trifluoroethyl)-1H-pyrazol-4-yl]furan-2-carboxamide]",364,0.705,85.9
"O=C(Cc1ccn2ccnc2c1)Nc1ccc(NC(=O)CC2CCCC2)cc1 [Example 739, 2-cyclopentyl-N-{4-[(imidazo[1,2-a]pyridin-7-ylacetyl)amino]phenyl}acetamide]",37.7,0.672,67.6
"CC(C)Cn1cc(-c2ccc(C(=O)NCc3ccn4ccnc4c3)o2)cn1 [Example 740, N-(imidazo[1,2-a]pyridin-7-ylmethyl)-5-[1-(2-methylpropyl)-1H-pyrazol-4-yl]furan-2-carboxamide]",70.1,0.403,8.13
"O=C(NCc1ccn2ccnc2c1)c1ccc(-c2cnn(Cc3ccccc3)c2)o1 [Example 741, 5-(1-benzyl-1H-pyrazol-4-yl)-N-(imidazo[1,2-a]pyridin-7-ylmethyl)furan-2-carboxamide]",68,0.647,74.9
"O=C(NCc1ccn2ccnc2c1)c1ccc(-c2cnn(C[C@@H]3CCCO3)c2)o1 [Example 742, N-(imidazo[1,2-a]pyridin-7-ylmethyl)-5-{1-[(2S)-tetrahydrofuran-2-ylmethyl]-1H-pyrazol-4-yl}furan-2-carboxamide]",241,0.526,10.5
"O=C(NCc1ccn2ccnc2c1)c1ccc(-c2cnn(C[C@H]3CCCO3)c2)o1 [Example 743, N-(imidazo[1,2-a]pyridin-7-ylmethyl)-5-{1-[(2R)-tetrahydrofuran-2-ylmethyl]-1H-pyrazol-4-yl}furan-2-carboxamide]",63.3,0.691,6.81
"CC(C)C(=O)N1CC=C(c2ccc(C(=O)NCc3ccn4ccnc4c3)o2)CC1 [Example 744, N-(imidazo[1,2-a]pyridin-7-ylmethyl)-5-[1-(2-methylpropanoyl)-1,2,3,6-tetrahydropyridin-4-yl]furan-2-carboxamide]",1080,0.806,505
"CC(C)CC(=O)N1CC=C(c2ccc(C(=O)NCc3ccn4ccnc4c3)o2)CC1 [Example 745, N-(imidazo[1,2-a]pyridin-7-ylmethyl)-5-[1-(3-methylbutanoyl)-1,2,3,6-tetrahydropyridin-4-yl]furan-2-carboxamide]",994,0.783,632
"O=C(NCc1ccn2ccnc2c1)c1ccc(C2=CCN(C(=O)c3ccccc3)CC2)o1 [Example 746, 5-(1-benzoyl-1,2,3,6-tetrahydropyridin-4-yl)-N-(imidazo[1,2-a]pyridin-7-ylmethyl)furan-2-carboxamide]",795,0.839,116
"CC(C)Cc1ccc(-c2ccc(C(=O)NCc3ccn4ccnc4c3)o2)cc1 [Example 747, N-(imidazo[1,2-a]pyridin-7-ylmethyl)-5-[4-(2-methylpropyl)phenyl]furan-2-carboxamide]",435,1.75,942
"CC[C@H](C)C(=O)N1CC=C(c2ccc(C(=O)NCc3ccn4ccnc4c3)o2)CC1 [Example 748, N-(imidazo[1,2-a]pyridin-7-ylmethyl)-5-{1-[(2S)-2-methylbutanoyl]-1,2,3,6-tetrahydropyridin-4-yl}furan-2-carboxamide]",558,0.648,50.7
"CC(C)(C)CC(=O)N1CC=C(c2ccc(C(=O)NCc3ccn4ccnc4c3)o2)CC1 [Example 749, 5-[1-(3,3-dimethylbutanoyl)-1,2,3,6-tetrahydropyridin-4-yl]-N-(imidazo[1,2-a]pyridin-7-ylmethyl)furan-2-carboxamide]",392,0.79,77

# Source: patent publication US9187472B2 (AbbVie Inc., priority 2012, dated 2015)
